Assay results taken from PubChem BioAssay AID1845210 (Molecular Pharmacology Branch, DTP, NCI, 2023).

Test system: NCI-H226 complex tumor spheroids, viability
Assay: Anticancer human tumor NCI-H226 cell line growth inhibition;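 note: spheroids exposed to compound for 7 days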;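 for viability, T/C: 100% = DMSO vehicle control viability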
Details: for IC50: curve of first compound; for viability, T/C: stronger effect = lower value
Method in brief: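 Complex tumor spheroids combined malignant cells with endothelial cells and mesenchymal stem cells. DNA-damaging drugs and DNA repair inhibitors were tested alone and in combination, at half-log dilutions down from clinical Cmax (top 10 microM if Cmax unknown), 0.25% DMSO final.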

[1] = second compound 30 pM, first compound 0.0316 µM
[2] = second compound 30 pM, first compound 0.1 µM
[3] = second compound 30 pM, first compound 0.316 µM
[4] = second compound 30 pM, first compound 1 µM
[5] = second compound 30 pM, first compound 3.16 µM
[6] = second compound 30 pM, first compound 10 µM
[7] = second compound 94.9 pM, first compound 0.0316 µM
[8] = second compound 94.9 pM, first compound 0.1 µM
[9] = second compound 94.9 pM, first compound 0.316 µM
[10] = second compound 94.9 pM, first compound 1 µM
[11] = second compound 94.9 pM, first compound 3.16 µM
[12] = second compound 94.9 pM, first compound 10 µM
[13] = second compound 0.0003 µM, first compound 0.0316 µM
[14] = second compound 0.0003 µM, first compound 0.1 µM
[15] = second compound 0.0003 µM, first compound 0.316 µM
[16] = second compound 0.0003 µM, first compound 1 µM
[17] = second compound 0.0003 µM, first compound 3.16 µM
[18] = second compound 0.0003 µM, first compound 10 µM
[19] = second compound 0.000949 µM, first compound 0.0316 µM
[20] = second compound 0.000949 µM, first compound 0.1 µM
[21] = second compound 0.000949 µM, first compound 0.316 µM
[22] = second compound 0.000949 µM, first compound 1 µM
[23] = second compound 0.000949 µM, first compound 3.16 µM
[24] = second compound 0.000949 µM, first compound 10 µM
[25] = second compound 0.003 µM, first compound 0.0316 µM
[26] = second compound 0.003 µM, first compound 0.1 µM
[27] = second compound 0.003 µM, first compound 0.316 µM
[28] = second compound 0.003 µM, first compound 1 µM
[29] = second compound 0.003 µM, first compound 3.16 µM
[30] = second compound 0.003 µM, first compound 10 µM
[31] = second compound 1 µM, first compound 0.00949 µM
[32] = second compound 1 µM, first compound 0.03 µM
[33] = second compound 1 µM, first compound 0.0949 µM
[34] = second compound 1 µM, first compound 0.3 µM
[35] = second compound 1 µM, first compound 0.949 µM
[36] = second compound 1 µM, first compound 3 µM
[37] = second compound 3.16 µM, first compound 0.00949 µM
[38] = second compound 3.16 µM, first compound 0.03 µM
[39] = second compound 3.16 µM, first compound 0.0949 µM
[40] = second compound 3.16 µM, first compound 0.3 µM
[41] = second compound 3.16 µM, first compound 0.949 µM
[42] = second compound 3.16 µM, first compound 3 µM
[43] = second compound 10 µM, first compound 0.00949 µM
[44] = second compound 10 µM, first compound 0.03 µM
[45] = second compound 10 µM, first compound 0.0949 µM
[46] = second compound 10 µM, first compound 0.3 µM
[47] = second compound 10 µM, first compound 0.949 µM
[48] = second compound 10 µM, first compound 3 µM
[49] = second compound 31.6 µM, first compound 0.00949 µM
[50] = second compound 31.6 µM, first compound 0.03 µM
[51] = second compound 31.6 µM, first compound 0.0949 µM
[52] = second compound 31.6 µM, first compound 0.3 µM
[53] = second compound 31.6 µM, first compound 0.949 µM
[54] = second compound 31.6 µM, first compound 3 µM
[55] = second compound 100 µM, first compound 0.00949 µM
[56] = second compound 100 µM, first compound 0.03 µM
[57] = second compound 100 µM, first compound 0.0949 µM
[58] = second compound 100 µM, first compound 0.3 µM
[59] = second compound 100 µM, first compound 0.949 µM
[60] = second compound 100 µM, first compound 3 µM

CC(C)n1c(=O)n(C)c2cnc3cc(F)c(-c4ccc(OCCCN5CCCCC5)nc4)cc3c21 + COc1cc2c(cc1O)CCNC21CSC2c3c(OC(C)=O)c(C)c4c(c3C(COC1=O)N1C(O)C3Cc5cc(C)c(OC)c(O)c5C(C21)N3C)OCO4
IC50 (second compound 30 pM): 9.84 µM | IC50 (second compound 94.9 pM): 6.75 µM | IC50 (second compound 0.0003 µM): 6.99 µM | IC50 (second compound 0.000949 µM): 6.76 µM | IC50 (second compound 0.003 µM): < 0.0316 µM | viability, T/C [1]: 110% | viability, T/C [2]: 102% | viability, T/C [3]: 121% | viability, T/C [4]: 110% | viability, T/C [5]: 91% | viability, T/C [6]: 49.4% | viability, T/C [7]: 108% | viability, T/C [8]: 102% | viability, T/C [9]: 112% | viability, T/C [10]: 103% | viability, T/C [11]: 90.4% | viability, T/C [12]: 29.2% | viability, T/C [13]: 107% | viability, T/C [14]: 125% | viability, T/C [15]: 122% | viability, T/C [16]: 102% | viability, T/C [17]: 102% | viability, T/C [18]: 27.4% | viability, T/C [19]: 98.2% | viability, T/C [20]: 103% | viability, T/C [21]: 104% | viability, T/C [22]: 120% | viability, T/C [23]: 97.4% | viability, T/C [24]: 25.4% | viability, T/C [25]: 1.2% | viability, T/C [26]: 2.1% | viability, T/C [27]: 1.2% | viability, T/C [28]: 3.57% | viability, T/C [29]: 1.96% | viability, T/C [30]: 1%

COc1ccc([C@@H](O)c2cc(-c3ncnc4cc(N5CCOCC5)ccc34)c(F)cc2Cl)nn1 + COc1cc2c(cc1O)CCNC21CSC2c3c(OC(C)=O)c(C)c4c(c3C(COC1=O)N1C(O)C3Cc5cc(C)c(OC)c(O)c5C(C21)N3C)OCO4
IC50 (second compound 30 pM): 6.37 µM | IC50 (second compound 94.9 pM): 4.02 µM | IC50 (second compound 0.0003 µM): 4.26 µM | IC50 (second compound 0.000949 µM): 0.756 µM | IC50 (second compound 0.003 µM): < 0.0316 µM | viability, T/C [1]: 115% | viability, T/C [2]: 108% | viability, T/C [3]: 81.2% | viability, T/C [4]: 80.5% | viability, T/C [5]: 58% | viability, T/C [6]: 43.6% | viability, T/C [7]: 99.8% | viability, T/C [8]: 105% | viability, T/C [9]: 106% | viability, T/C [10]: 76.5% | viability, T/C [11]: 54.6% | viability, T/C [12]: 43.5% | viability, T/C [13]: 126% | viability, T/C [14]: 130% | viability, T/C [15]: 122% | viability, T/C [16]: 95.4% | viability, T/C [17]: 54.7% | viability, T/C [18]: 37.5% | viability, T/C [19]: 107% | viability, T/C [20]: 112% | viability, T/C [21]: 93.6% | viability, T/C [22]: 36.4% | viability, T/C [23]: 0.51% | viability, T/C [24]: 0.24% | viability, T/C [25]: 1.01% | viability, T/C [26]: 0.79% | viability, T/C [27]: 0.98% | viability, T/C [28]: 0.69% | viability, T/C [29]: 0.74% | viability, T/C [30]: 1.08%

CNCc1ccc(-c2cc(-c3nc(-c4ccc(S(=O)(=O)C(C)C)cc4)cnc3N)on2)cc1 + Cn1nnc2c(C(N)=O)ncn2c1=O
IC50 (second compound 1 µM): 0.756 µM | IC50 (second compound 3.16 µM): 0.717 µM | IC50 (second compound 10 µM): 0.755 µM | IC50 (second compound 31.6 µM): 1.03 µM | IC50 (second compound 100 µM): 1.37 µM | viability, T/C [31]: 110% | viability, T/C [32]: 125% | viability, T/C [33]: 138% | viability, T/C [34]: 140% | viability, T/C [35]: 30.7% | viability, T/C [36]: 0.26% | viability, T/C [37]: 96.1% | viability, T/C [38]: 119% | viability, T/C [39]: 127% | viability, T/C [40]: 134% | viability, T/C [41]: 27.6% | viability, T/C [42]: 0.51% | viability, T/C [43]: 117% | viability, T/C [44]: 117% | viability, T/C [45]: 131% | viability, T/C [46]: 128% | viability, T/C [47]: 31.8% | viability, T/C [48]: 0.23% | viability, T/C [49]: 110% | viability, T/C [50]: 117% | viability, T/C [51]: 144% | viability, T/C [52]: 123% | viability, T/C [53]: 53.7% | viability, T/C [54]: 1.75% | viability, T/C [55]: 119% | viability, T/C [56]: 125% | viability, T/C [57]: 123% | viability, T/C [58]: 114% | viability, T/C [59]: 73.3% | viability, T/C [60]: 0.35%

Cn1ncnc1[C@H]1c2n[nH]c(=O)c3cc(F)cc(c23)N[C@@H]1c1ccc(F)cc1 + Cn1nnc2c(C(N)=O)ncn2c1=O
IC50 (second compound 1 µM): > 3 µM | IC50 (second compound 3.16 µM): > 3 µM | IC50 (second compound 10 µM): > 3 µM | IC50 (second compound 31.6 µM): > 3 µM | IC50 (second compound 100 µM): > 3 µM | viability, T/C [31]: 101% | viability, T/C [32]: 103% | viability, T/C [33]: 99.4% | viability, T/C [34]: 91.2% | viability, T/C [35]: 85.8% | viability, T/C [36]: 97.8% | viability, T/C [37]: 105% | viability, T/C [38]: 55.1% | viability, T/C [39]: 94.8% | viability, T/C [40]: 85.6% | viability, T/C [41]: 93.1% | viability, T/C [42]: 105% | viability, T/C [43]: 108% | viability, T/C [44]: 89.9% | viability, T/C [45]: 86.8% | viability, T/C [46]: 88.6% | viability, T/C [47]: 89.5% | viability, T/C [48]: 97.5% | viability, T/C [49]: 101% | viability, T/C [50]: 95.2% | viability, T/C [51]: 96.4% | viability, T/C [52]: 91.8% | viability, T/C [53]: 82.3% | viability, T/C [54]: 90.7% | viability, T/C [55]: 106% | viability, T/C [56]: 108% | viability, T/C [57]: 95.8% | viability, T/C [58]: 87.1% | viability, T/C [59]: 100% | viability, T/C [60]: 93.5%

O=C(c1cc(Cc2n[nH]c(=O)c3ccccc23)ccc1F)N1CCN(C(=O)C2CC2)CC1 + Cn1nnc2c(C(N)=O)ncn2c1=O
IC50 (second compound 1 µM): > 30 µM | IC50 (second compound 3.16 µM): > 30 µM | IC50 (second compound 10 µM): > 30 µM | IC50 (second compound 31.6 µM): > 30 µM | IC50 (second compound 100 µM): > 30 µM | viability, T/C [33]: 99.9% | viability, T/C [34]: 99.8% | viability, T/C [35]: 107% | viability, T/C [36]: 104% | viability, T/C (second compound 1 µM, first compound 9.49 µM): 99.2% | viability, T/C (second compound 1 µM, first compound 30 µM): 86.4% | viability, T/C [39]: 105% | viability, T/C [40]: 96.7% | viability, T/C [41]: 105% | viability, T/C [42]: 95.4% | viability, T/C (second compound 3.16 µM, first compound 9.49 µM): 81.9% | viability, T/C (second compound 3.16 µM, first compound 30 µM): 80.3% | viability, T/C [45]: 112% | viability, T/C [46]: 104% | viability, T/C [47]: 95.1% | viability, T/C [48]: 101% | viability, T/C (second compound 10 µM, first compound 9.49 µM): 84.6% | viability, T/C (second compound 10 µM, first compound 30 µM): 77.3% | viability, T/C [51]: 98.3% | viability, T/C [52]: 101% | viability, T/C [53]: 110% | viability, T/C [54]: 95.1% | viability, T/C (second compound 31.6 µM, first compound 9.49 µM): 84.6% | viability, T/C (second compound 31.6 µM, first compound 30 µM): 82% | viability, T/C [57]: 114% | viability, T/C [58]: 113% | viability, T/C [59]: 125% | viability, T/C [60]: 99.3% | viability, T/C (second compound 100 µM, first compound 9.49 µM): 97.8% | viability, T/C (second compound 100 µM, first compound 30 µM): 80.5%
